Experimental data as given in the NIST ThermoML archive (doi:10.1016/j.fluid.2009.11.030).
± gives the expanded uncertainty stated by the source.

Conditions: 101.33 kPa, Liquid, Vibrating tube method

mass density (288.15 K) [kg/m3] | mass density (298.15 K) [kg/m3] | mass density (313.15 K) [kg/m3] | mass density (328.15 K) [kg/m3] | mass density (338.15 K) [kg/m3] | mass density (348.15 K) [kg/m3] | Structure (SMILES)
806.121 ± 0.14 | 798.409 ± 0.14 | 786.515 ± 0.15 | 774.113 ± 0.15 | 765.452 ± 0.15 | 756.435 ± 0.16 | CC(C)CO [2-methyl-1-propanol]
906.547 ± 0.11 | 894.381 ± 0.12 | 875.812 ± 0.12 | 856.813 ± 0.13 | 843.858 ± 0.13 | 830.622 ± 0.14 | CCOC(C)=O [ethyl acetate]
819.154 ± 0.14 | 811.8 ± 0.14 | 800.574 ± 0.14 | 789.007 ± 0.15 | 781.05 ± 0.15 | 772.873 ± 0.15 | CCCCCO [pentan-1-ol]

Further lines, the molecule ahead of its results:

Structure (SMILES) | mass density (288.15 K) [kg/m3] | mass density (298.15 K) [kg/m3] | mass density (313.15 K) [kg/m3] | mass density (328.15 K) [kg/m3] | mass density (338.15 K) [kg/m3] | mass density (348.15 K) [kg/m3]
CCCCO [butan-1-ol] | 813.604 ± 0.11 | 805.984 ± 0.11 | 794.34 ± 0.12 | 782.323 ± 0.12 | 774.032 ± 0.13 | 765.48 ± 0.13
CCOC(=O)CC(=O)OCC [diethyl 1,3-propanedioate] | 1060.33 ± 0.061 | 1049.6 ± 0.057 | 1033.5 ± 0.051 | 1017.34 ± 0.045 | 1006.5 ± 0.042 | 995.631 ± 0.041
CCCCCCC [heptane] | 688.254 ± 0.25 | 679.787 ± 0.25 | 666.893 ± 0.25 | 653.72 ± 0.26 | 644.767 ± 0.26 | 635.631 ± 0.26
